Paper PMC6697720, “Saturation of acyl chains converts cardiolipin from an antagonist to an activator of Toll-like receptor-4” (Cellular and Molecular Life Sciences: CMLS, 2019)

Experiments:
primary human monocytes = experiment: TNF-α and IL-1β secretion in primary human monocytes incubated with CL; assay type: cell-based; conditions: with NLRP3 inhibitor MCC950
Experimental: Human monocytes were isolated from PBMCs by immunomagnetic negative selection using the EasySep™ human monocyte enrichment kit without CD16 depletion (STEMCELL™ Technologies).
(§1) 100.000 of freshly isolated PBMCs or monocytes were mixed with stimulants to a final volume of 160 μL/well in round bottom 96-well plates.
(§2) After stimulation, supernatants were collected, centrifuged, and assayed for cytokine secretion, while cells were assayed for viability.
TNF-α and IP-10 were quantified in cell supernatants using DuoSet ELISA kits from R&D Systems and human IL-1β using Instant ELISA™ Kit from Invitrogen, according to the manufacturer’s instructions. Absorbance was read with a BioTek Synergy HT Microplate Readers.
Fig. 3 Saturated but not unsaturated CLs have pro-inflammatory properties. a RAW-Blue™ cells were incubated overnight with the indicated amount of CL or LPS, supernatants were collected, and NF-κB activation quantified via Quanti-Blue™ test and reported here as fold induction as compared to control. Unpaired t test: differences with respect to the control (Ctrl) are not significant if p > 0.05 (no symbol); *p ≤ 0.0007. b Immortalized BMDM cells were incubated overnight with the indicated amount of CL or LPS; supernatants were collected and TNF-α quantified via ELISA assay. c, d Primary human monocytes were incubated overnight with the indicated amount of CL or LPS with or without the NLRP3 inhibitor MCC950, supernatants were collected, and TNF-α and IL-1β were quantified via ELISA assay. Graphs are representative of experiments from six different donors. Unpaired t test: differences with respect to the control (Ctrl) are not significant if p > 0.05 (no symbol); *p ≤ 0.021. Each bar represents the mean + standard deviation of three biological replicates (n = 3). Graphs are representative of at least three independent experiments
C18:0 and C18:2 CLs’ pro-inflammatory activities were validated in primary monocytes isolated from human donor blood. C18:0 CL but not C18:2 CL reproduced LPS activity inducing TNF-α and IL-1β secretion in a dose-dependent manner (Fig. 3c, d).

human PBMCs = experiment: LPS-induced TNF-α and IL-1β release in human PBMCs; assay type: cell-based; conditions: LPS 100 ng/mL
Experimental: Blood from healthy volunteers was collected upon informed consent. PBMCs were obtained by Ficoll gradient centrifugation in Histopaque-1077 (Sigma-Aldrich, St Louis, Missouri, United States) using SepMate™ isolation tubes from STEMCELL™ according to the manufacturer’s instructions. Isolated PBMCs were resuspended in RPMI 1640 supplemented with 10% heat-inactivated FBS.
as §1, §2
TNF-α and IP-10 were quantified in cell supernatants using DuoSet ELISA kits from R&D Systems and human IL-1β using Instant ELISA™ Kit from Invitrogen, according to the manufacturer’s instructions. Absorbance was read with a BioTek Synergy HT Microplate Readers. […]

CC(C)(O)c1coc(S(=O)(=O)NC(=O)Nc2c3c(cc4c2CCC4)CCC3)c1 [MCC950]
inhibition of saturated CL-induced IL-1β secretion (primary human monocytes): inhibited
inhibition of LPS-induced TNF-α secretion (human PBMCs; 4 h): not
inhibition of LPS-induced IL-1β secretion (human PBMCs; 16 h): able to inhibit
